According to patent publication US20240350647A1, “STING SENSITIZING AGENTS” (STipe Therapeutics ApS, priority 2023, published 2024):
Entries after “also recorded” stand apart in the source; their conditions may differ. Where a SMILES comes first, the peptide text is derived from it. Bridges are numbered along the chain shown (N, C = ends). [ ]: non-standard residue; d: D form. The star is where a group is joined. C16 diacid = O=C(O)CCCCCCCCCCCCCCC(=O)*; AEEA = NCCOCCOCC(=O)O

What was measured:
[1] = In vitro metabolic stability in fresh blood; assay type: in vitro ADME; details: 37° C.; mouse, rat and human blood
Protocol: Fresh blood from mouse (CD-1) and rat (Wistar) was collected from lab animals. Human blood was collected from healthy donors at local hospital or acquired from commercial vendor (BioIVT). Blood from non-human primates (Cynomolgus macaque) was acquired from commercial vendor (BioTVT).
For mouse, rat and human blood, 5.0 μg/mL of tested agent (except Agent 1 in human blood) was diluted from stock solution in DMSO to a final DMSO concentration of 0.5% and incubated in 1000 μL of blood at 37° C., in duplicate. At 0, 5, 15, 30, and 60 minutes, 180 μL was sampled and centrifuged at 2000 g for 1 min, 80 μL supernatant was taken and diluted 1:1 with water followed by precipitation with acetonitrile containing 5% TFA (internal standard 100 nM leucine enkephalin+Glu1 fibrinopeptide B). The obtained supernatant 60 μL was further diluted with 30 μL 20% DMSO in ultra-pure water and submitted for immediate analysis by LC-MS/MS. The controls were 1 μM propantheline bromide (mouse, human) or 1 μM enalapril (rat).
Incubation of Agent 1 in blood from human and monkey was performed in a similar manner. A 25 μM solution of Agent 1 was prepared with 5% DMSO and 22.5% methanol in water. […]
The peak areas were determined against a calibration curve and the T0 sample was set to 100%. The disappearance rate (k) was calculated and the half-life for each incubation was determined (t½=ln 2/k).

FIG. 10A = details: mouse, in vivo, iv, 10 mg/kg
Protocol: Table printed on a drawing sheet, FIG. 10A
The patent's description of the figure: FIGS. 10A-10C. Pharmacokinetic profile and parameter for peptides after intravenous administration. FIG. 10A) Mouse PK data (10 mg/kg, bolus IV, n=3 per timepoint). FIG. 10B) Rat PK data (10 mg/kg, bolus IV, n=3 per timepoint). FIG. 10C) Non-human primate (NHP) PK data (4 mg/kg, 30 min IV infusion, n=3). Error bars represent the standard deviation (SD).
First reader's note: Mouse PK parameters; the legend of the plot on the same sheet gives 10 mg/kg (IV) for both agents.

CD4+ T cells = assay: Dendritic Cell-T cell (DC-T) proliferation assay (ProImmune); details: 22 donors; Percentage Stimulation above Background ≥0.5%, SEM=2; peptides 0.34 μM
Description: A panel of peripheral blood mononuclear cell (PBMC) samples from healthy human donors was selected from the ProImmune Ltd (UK) cell bank. Each PBMC sample was HLA (Human Leukocyte Antigen)-typed and stored in liquid nitrogen (vapor-phase) prior to use. The panel was selected so that HLA class II alleles known to be highly expressed in the global population were well represented (data not shown). Donors were predominantly selected by DRB1 allele expression.
A Dendritic Cell-T cell (DC-T) proliferation assay (ProImmune Ltd) was used to identify the presence or potential T cell epitopes within the peptides. Adherent donor PBMCs were cultured with appropriate growth factors to generate monocyte-derived DCs. DCs were then loaded with a control (control 1 and control 2), the peptide (Agent 1, Agent 2, and Agent 3, see FIG. 8A) or left untreated. The peptides were loaded at a final concentration of 0.34 μM.
Mature antigen-loaded DCs were then co-cultured at a fixed ratio with autologous CFSE-labelled T cells in multi-well plates. Each test condition was set up in eight replicate wells and cells were incubated for 7 days. At the end of the incubation period, cell samples were stained with anti-CD4 antibody, then washed and fixed for by flow cytometric analysis. Proliferation was determined by measuring a decrease in CFSE intensity.
Data were compiled to determine antigen-induced proliferation per individual donor, calculated as Percentage Stimulation above Background. The frequency of positive donor cell responses (Percentage Antigenicity) was calculated as the proportion of responding donors out of total donors. Values were then standardized against the strength of response (an average of the Percentage Stimulation value obtained across accepted donors for each protein) to give a response index (RI).
Data obtained by flow cytometric evaluation of cell samples was analyzed using FlowJo Software (Tree Star, Inc.). The number of CFSE-dim (i.e., proliferating) cells was determined for each sample in eight replicate wells. Counts for the CD4^+ CFSE dim population in each sample were expressed as a proportion of the total CD4^+ population. The eight replicate values were then used to calculate Percentage Stimulation above Background (proportion of CD4^+ CFSE dim cells with antigen stimulation minus the proportion of CD4^+ CFSE dim cells without antigen stimulation).
Background threshold values are based on data from unstimulated cells for which a maximum acceptable resting proliferation threshold is established.
In evaluating antigenicity, it is also appropriate to take account of the frequency of donor cell responses across the study cohort. A positive response (Percentage Stimulation above Background ≥0.5%) in 2 or more independent donor samples is considered indicative of a potential T cell epitope.
Depending on the size of the study, (20, 40 or 50 donors), two responding donors sets a threshold of 10%, 5% or 4% respectively. Thus, following calculation of Percentage Stimulation above Background, the frequency of positive donor cell responses (Percentage Antigenicity) is expressed as the proportion of responding donors out of total accepted donors screened.
When calculating the antigenicity of a protein it is important to consider the strength of a response as well as the frequency of that response. This is because some binding responses may be pan-allele, but these responses may not be very strong. The strength of positive donor cell responses was determined by taking an average of the percentage stimulation value obtained across accepted donors for each protein. Determining a Response Index (RI) through the multiplication of strength and frequency values is more representative of the level of antigenicity.

CC[C@H](C)[C@H](NC(=O)[C@H](CC(N)=O)NC(=O)[C@H](CCCCN)NC(=O)[C@H](C)NC(=O)[C@H](CCCCN)NC(=O)[C@H](CCCCN)NC(=O)COCCOCCNC(=O)COCCOCCNC(=O)CCCCCCCCCCCCCCC(=O)O)C(=O)N[C@H](C(=O)N[C@@H](CC(C)C)C(=O)N[C@@H](CC(C)C)C(=O)N[C@@H](CCCCN)C(=O)NCC(=O)N[C@@H](CC(C)C)C(=O)N[C@@H](CCC(=O)O)C(=O)N[C@H](C(=O)N[C@H](C(=O)N[C@@H](CC(N)=O)C(=O)N[C@@H](CC(=O)O)C(=O)N[C@@H](Cc1c[nH]c2ccccc12)C(=O)N[C@@H](Cc1c[nH]cn1)C(=O)N[C@@H](Cc1ccccc1)C(=O)N[C@H]1CSSC[C@@H](C(N)=O)NC(=O)[C@@H](CCCNC(=N)N)NC(=O)[C@H](CCCNC(=N)N)NC(=O)[C@@H](CCCCN)NC(=O)[C@H](CCCCN)NC(=O)[C@@H](CCCNC(=N)N)NC(=O)CNC(=O)[C@@H](CCCNC(=N)N)NC(=O)[C@H](CCCNC(=N)N)NC(=O)[C@@H](CCCNC(=N)N)NC1=O)[C@@H](C)CC)C(C)C)C(C)C [Agent 1] ({C16 diacid-AEEA-AEEA}-KKAKNIVLLKGLEVINDWHFC[dR]R[dR]G[dR]K[dK]R[dR]C-NH2; disulfide 21-31)
metabolic stability in fresh blood (half-life) compared to Agent 2 and Agent 3 [1]: better stability; also recorded: considerably reduces the metabolism | C0 (FIG. 10A): 30500 ng/mL | Response Index (RI) (CD4+ T cells): 0.294 | percentage antigenicity (CD4+ T cells): 22.73%
